Counter-ions that a name gives are not always drawn. Like-named read-outs stand apart in the source and are kept apart here.
Tests used:
[1] = 25°C
Experimental: To determine the solubility, small samples of the respective substance were exactly weighed to Eppendorf tubes. Upon shanking at an Eppendorf thermomixer (25 C @ 1400 rpm), water is added until the whole samples was homogenously dissolved.

[2] = for ε405: λ = 405 nm
Experimental: To compare photobleaching, 0.25 mM solutions of ^PhBAPO-ONBu4 and ^MesBAPO-ONBu4 were prepared in THF. UV-Vis spectra were recorded in 2 mm quartz cuvettes prior and after 15 min of irradiation with 265 nm (Lumos 43 LED reactor, Atlas Photonics). Spectra have been smoothed (adjacent averaging, points of window: 5).

[3] = for irradiation time to complete photolysis: 405 nm LED, 80 mM in CD3CN, diphenyl disulfide (3 eq.)
Text: The photolysis has been followed by ^31P NMR. […] The results are further illustrated by Fig. 2

[4] = for integral rel. to TPP / integral rel. to t = 0: protected from light
Experimental: To determine the stability of ^PhBAPO-ONBu4 against hydrolysis, 10 mg were dissolved in 0.6 mL of D2O in a NMR tube protected from light. […] Table 1: Integrals of 31P NMR signals of PhBAPO-ONBu4 relative to TPP as external standard for integration over time.

SMILES: Cc1cc(C)c(C(=O)P(=O)(O)C(=O)c2c(C)cc(C)cc2C)c(C)c1 [^MesBAPO-ONBu4, bis(mesitoyl)phosphinic acid tetrabutylammonium salt, reference compound]
- solubility in water [1]: 3.5 g/L
- λmax (longest wave absorption) ([2]; THF): 373 nm
- ε ([2]; λ = 244 nm): 5935±72 Lmol^-1cm^-1
- ε ([2]; λ = 265 nm (LED wavelength)): 3368±88 Lmol^-1cm^-1
- ε ([2]; λ = 359 nm): 211±3 Lmol^-1cm^-1
- ε ([2]; λ = 365 nm (LED wavelength)): 216±4 Lmol^-1cm^-1
- ε405 [2]: 64 Lmol^-1cm^-1
- irradiation time to complete photolysis [3]: over 12 min

SMILES: O=C(c1ccccc1)P(=O)(O)C(=O)c1ccccc1 [^PhBAPO-ONBu4, bis(benzoyl)phosphinic acid tetrabutylammonium salt]
- solubility in water [1]: 17.2 g/L
- half-life [4]: 51.4 days
- half time ([4]; hydrolysis in D2O): 51 days
- t1 (exponential fitting of the decay, y = e^-x/t1) ([4]; hydrolysis in D2O, over 84 days): 74.2 ± 1.8 days
- integral rel. to TPP ([4]; t = 0 d, 10 mg in 0.6 mL D2O): 4.24
- integral rel. to t = 0 ([4]; t = 0 d, D2O): 1
- integral rel. to TPP ([4]; t = 4 d, D2O): 4.02
- integral rel. to t = 0 ([4]; t = 4 d, D2O): 0.9481
- integral rel. to TPP ([4]; t = 5 d, D2O): 4.02
- integral rel. to t = 0 ([4]; t = 5 d, D2O): 0.9481
- integral rel. to TPP ([4]; t = 14 d, D2O): 3.46
- integral rel. to t = 0 ([4]; t = 14 d, D2O): 0.816
- integral rel. to TPP ([4]; t = 29 d, D2O): 2.98
- integral rel. to t = 0 ([4]; t = 29 d, D2O): 0.7028
- integral rel. to TPP ([4]; t = 56 d, D2O): 1.98
- integral rel. to t = 0 ([4]; t = 56 d, D2O): 0.467
- integral rel. to TPP ([4]; t = 84 d, D2O): 1.31
- integral rel. to t = 0 ([4]; t = 84 d, D2O): 0.309
- photobleaching ([2]; 0.25 mM in THF, 15 min irradiation with 265 nm): only colourless photoproducts are formed
- red shift of λmax compared to ^MesBAPO-ONBu4 ([2]; THF): about 20 nm
- λmax (longest wave absorption) ([2]; THF): 394 nm
- ε ([2]; λ = 235 nm): 16957±1372 Lmol^-1cm^-1
- ε ([2]; λ = 265 nm (LED wavelength)): 3424±88 Lmol^-1cm^-1
- ε ([2]; λ = 365 nm (LED wavelength)): 106±2 Lmol^-1cm^-1
- ε ([2]; λ = 394 nm): 171±4 Lmol^-1cm^-1
- ε405 [2]: 154 Lmol^-1cm^-1
- irradiation time to complete photolysis [3]: ≤ 6 min
- photoactivity relative to ^MesBAPO-ONBu4 ([3]; 405 nm irradiation): at least twice as photoactive as ^MesBAPO-ONBu4
